From patent publication US20170100345A1, “WOUND HEALING USING BRAF INHIBITORS” (THE REGENTS OF THE UNIVERSITY OF CALIFORNIA, priority 2014, published 2017)
Where “and” joins values, the source holds several entries; their conditions need not be identical. Equal entries are not always repeated. Entries after “also recorded” stand apart in the source; their conditions may differ.

Assays:
[1] = test system: Human epithelial adult keratinocytes (HEKa); test: scratch assay of HEKa, automated microscope analyzer; assay type: cell-based; details: HEKa with vs without vemurafenib; evident at 6, 8 and 12 hours
Text: (§1) FIG. 2 illustrates that BRAF inhibition induces paradoxical MAPK activation in human keratinocytes leading to increased proliferation. FIG. 2A is a quantitative analysis of proliferation and scratch healing as the percentage relative wound density of cells at different time points in replicate cultures of HEKa in the presence or absence of vemurafenib by automated microscope analyzer. P value <0.0044 by t-test. […] FIG. 2C illustrates fold-change representation of colony quantification of HEKa and M249 cells grown in soft-agar with or without exposure to vemurafenib. […] The co-expression levels of pERK and Ki67 are shown in the middle of the panel, and quantified and represented a fold change on the left.
(§2) Quantitative analysis of proliferation is represented in FIG. 2A.
(§3) Human epithelial adult keratinocytes (HEKa) cultured in 96-well plates were subject to a scratch assay, where proliferating keratinocytes should regrow and cover the scratch. Replicate cultures with or without the BRAF inhibitor vemurafenib were placed in an incubator with an automated microscope analyzer and the number of nucleated cells in the original scratch was recorded over time. […] Using these cultures, paradoxical MAPK activation and cell proliferation were analyzed by western blot (FIGS. 2F-2G) and quantitative phosphoflow cytometry (FIG. 2H and FIGS. 4A-4B).

2.5 cm dorsal skin wound = test: wound-healing assay in C3H mice, wound tensile strength by tensiometer; assay type: in vivo
Experimental: FIG. 5A is a schematic representation of the wound-healing assay performed in […] mice according to some embodiments.
In a controlled wound-healing assay in C3H mice, a 2.5 cm dorsal skin wound was induced and was filled with either vehicle control (DMSO/saline) or a suspension of 2 mM of vemurafenib (obtained by crushing clinical grade pills of this agent) in vehicle. The skin wounds were surgically clipped on day 0 and mice were followed until day 14 (FIGS. 5A-5B). Over this time, the vemurafenib suspension or vehicle control was applied topically every other day to 24 mice in the test group or to 24 mice in the control group, respectively, for a total of seven doses per mouse. On day 14, the mice were euthanized and the skin containing the wound was removed and mounted in 20 mm strips with a horizontal wound sample in each strip. The wound tensile strength (WTS) was analyzed using a tensiometer that stretched the strips and recorded the WTS in gram force (gf).

HEKa = test: three-dimensional soft agar colony assay, HEKa; assay type: cell-based, human
Text: as §1, §2, §3

[2] = test system: Human epithelial adult keratinocytes (HEKa); test: cell proliferation wound-healing assay, 96 well plates with seeder stoppers; assay type: cell-based; details: 24 hours, vs control treated wells
Text: as §1, §3

[3] = test system: pERK and Ki67 in BRAF^V600E mutant human melanoma cell line M249; test: MAPK signaling and cell proliferation by western blot and phosphoflow cytometry, M249; assay type: cell-based; details: western blot and phosphoflow (VEM 2 μM)
Text: as §1, §3

[4] = test system: BRAF^V600E mutant melanoma line M249; test: three-dimensional soft agar colony assay, M249; assay type: cell-based, human; details: M249, with vs without exposure
Text: as §1, §2, §3

[5] = test system: skin wounds and their surroundings; test: histological analysis (H&E) of healing wounds in mice; assay type: in vivo
Text: FIG. 6 is a schematic representation of the pathological analysis of wound healing on days 1 (D1), 2 (D2) and 6 (D6) post-treatment. […] Wound-adjacent epidermis undergoes hyperplasia and proliferation and epidermal cells from this process migrate centrally to seal the incised epidermal deficiency. The space of the incision fills initially with fibrin, which is then colonized by fibroblasts, macrophages, polymorphonuclear cells and new capillaries. […] Each bar includes data from 4 samples.
The area of the wounds and their surroundings were analyzed histologically by H&E staining by two pathologists and the extent of epidermal hyperplasia on both sides of the healing wounds was measured on days 1, 2 and 6 post-treatment (FIGS. 6A and 6B).

[6] = test system: MAPK and wound healing pathway output; test: RNASeq gene expression profiling of healing cutaneous wounds; assay type: in vivo, mice
Experimental: The skin samples obtained from mice treated either with vemurafenib or vehicle were analyzed for changes in MAPK and wound healing pathway output by RNASeq. The gene output of MAPK was compared to published data on the transcripts that were differentially modulated by blocking oncogenic MAPK signaling downstream of mutated BRAF^V600E using BRAF inhibitors, or to a published cutaneous wound healing gene signature.

[7] = test system: pERK and Ki67 in HEKa cells; test: paradoxical MAPK activation and cell proliferation by western blot and phosphoflow cytometry, HEKa; assay type: cell-based, human; details: western blot and phosphoflow (VEM 2 μM)
Text: as §1, §3

CCCS(=O)(=O)Nc1ccc(F)c(C(=O)c2c[nH]c3ncc(-c4ccc(Cl)cc4)cc23)c1F [vemurafenib]
covering of the original scratch (proliferation and scratch healing, relative wound density) [1]: accelerated the proliferation and migration of human keratinocytes; also recorded: statistically significant improvement in the covering of the original scratch
improvement in wound tensile strength (WTS) compared to saline control (2.5 cm dorsal skin wound; C3H mice, 2 mM suspension topically every other day, day 14, three independent replicate experiments (#1-3)): 52.6% and 32.9% and 42.8%
improvement in WTS vs. vehicle control (2.5 cm dorsal skin wound; separate cutaneous wound-healing assay (Experiment #4), trametinib 1 mg/kg where added): 37%
tensile strength of healing wounds (in words) (2.5 cm dorsal skin wound; wound-healing mouse model, topically applied): improved the tensile strength of healing wounds
mean spot size of HEKa colonies (HEKa; soft agar): increased significantly
number of HEKa colonies in soft agar (HEKa; with vs without exposure): increased in number
covering of the center of the wells by proliferating/migrating keratinocytes [2]: covered the center of the wells after 24 hours
cell cycle (Ki67) [3]: cell cycle arrest
pERK [3]: decreased pERK
number of M249 colonies in soft agar [4]: decrease in colonies
wounds re-epithelialized ([5]; by day 6): 100%
extent (length) of epidermal hyperplasia vs other treated groups ([5]; day 1 and 2): epidermal hyperplasia over a greater distance than the other treated groups
wound-adjacent epidermal inflammation ([5]; day 1 post-incision): more extensive
wound-adjacent (peri-lesional) epidermal hyperplasia, photomicrographs ([5]; day 2 post-incision): more extensive
dermal reparative / sub-epidermal fibrosis ([5]; day 6): beginning of sub-epidermal fibrosis
extent (length) of epidermal hyperplasia vs other treated groups ([5]; day 6): less epidermal hyperplasia
skin surface integrity ([5]; day 6): surface integrity was re-established; also recorded: Skin surface integrity re-established in 6 days
healing process / signs of healing or repair (pathologists' assessment) ([5]; days 1 to 6): the healing process is accelerated
onset of re-epithelialization ([5]; from day 2): strong and rapid re-epithelialization starting at day 2
BRAF and wound-healing signatures, later course ([6]; after day 6, time point not given): more pronounced decrease
BRAF signature genes ([6]; day 2, vs control): slight increase
wound-healing signature genes ([6]; day 2, vs control): almost no change
BRAF signature genes ([6]; day 6, vs control): enriched significantly
wound-healing signature genes ([6]; day 6, vs control): enriched significantly
cell cycle (Ki67) [7]: cell cycle progression
pERK [7]: paradoxical increase in pERK
